Test results published in ChEMBL document CHEMBL3639124, “Oxadiazole inhibitors of leukotriene production” (2013).

Each compound was assayed against T1, Arachidonate 5-lipoxygenase-activating protein (Homo sapiens, UniProt P20292) (assay: Binding Assay: Compounds area assessed for the ability to bind to FLAP in a binding assay that measures compound-specific displacement of an iodinated (125I) FLAP inhibitor via a scintillaion proximity assay format (adapted from S. Charleson et. al., Mol. Pharmacol., 1992,41 873-879).).
T1 sequence (P20292 whole entry): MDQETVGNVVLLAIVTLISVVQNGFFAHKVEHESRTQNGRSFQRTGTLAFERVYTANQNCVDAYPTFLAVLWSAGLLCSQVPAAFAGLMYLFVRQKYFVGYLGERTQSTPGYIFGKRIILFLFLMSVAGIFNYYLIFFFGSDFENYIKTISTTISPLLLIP

Q: Which IC50 does the source give for `COCCn1cc(-c2nc(C3(c4ccc(-c5cnc(N)nc5)nc4)CCC3)no2)cn1` here?
A: 17 nM

Q: For `COC(=O)[C@@H]1CN(c2ccc(-c3nc(C4(c5ccc(-c6cnc(N)nc6)nc5)CCC4)no3)cn2)CCN1`, which IC50 is on record?
A: 3.7 nM

Q: With `COCCNc1cnc(-c2nc(C3(c4ccc(-c5cnc(N)nc5)nc4)CCC3)no2)cn1` as the compound, how does the IC50 read?
A: 3.2 nM

Q: Which IC50 does the source give for `CCNc1cnc(-c2nc(C3(c4ccc(-c5cnc(N)nc5)nc4)CCC3)no2)cn1` here?
A: 2.4 nM

Q: For `CN1CCN(c2cnc(-c3nc(C4(c5ccc(-c6cnc(N)nc6)nc5)CCC4)no3)cn2)CC1`, which IC50 is on record?
A: 1.8 nM

Q: For `Nc1ncc(-c2ccc(C3(c4noc(-c5ccc6[nH]ncc6c5)n4)CCC3)cn2)cn1`, which IC50 is on record?
A: 4 nM

Q: Which IC50 does the source give for `CC(C)(C)NC(=O)Cn1cc(-c2nc(C3(c4ccc(-c5cnc(N)nc5)nc4)CCC3)no2)cn1` here?
A: 14 nM

Q: How did the IC50 turn out when `CCNC(=O)Cn1cc(-c2nc(C3(c4ccc(-c5cnc(N)nc5)nc4)CCC3)no2)cn1` was run?
A: 100 nM

Q: `N#CCn1cc(-c2nc(C3(c4ccc(-c5cnc(N)cn5)nc4)CCC3)no2)cn1` was tested. Which IC50 did it give?
A: 48 nM
